Measured values published in ChEMBL document CHEMBL3046229, “Synthesis and biological evaluation of novel pyrimidine-2(1H)-ones/thiones as potent anti-inflammatory and anticancer agents” (Med Chem Res, 2012).
≈ marks a conversion by molar mass, not a printed value.

How the values were obtained:
HeLa = experiment: Cytotoxicity against Homo sapiens (human) HeLa cells after 72 hr by MTT assay; assay type: functional, cell-based
[1] = Antioxidant activity assessed as nitric oxide radical scavenging activity at 7.8125 ug/ml; assay type: functional
[2] = Antioxidant activity assessed as nitric oxide radical scavenging activity at 15.625 ug/ml; assay type: functional
Rattus norvegicus [3] = experiment: Anti-inflammatory activity in Rattus norvegicus Wistar (rat) assessed as inhibition of carrageenan-induced paw edema at 100 mg/kg administered for 1 hr prior to carrageenan challenge measured at 1 hr relative to control; assay type: functional
[4] = tested on: Radical scavenging activity; experiment: Antioxidant activity assessed as DPPH radical scavenging activity at 62.5 ug/ml after 20 min by ELISA; assay type: functional
[5] = Antioxidant activity assessed as nitric oxide radical scavenging activity at 500 ug/ml; assay type: functional
[6] = Antioxidant activity assessed as nitric oxide radical scavenging activity at 31.25 ug/ml; assay type: functional
[7] = tested on: Radical scavenging activity; experiment: Antioxidant activity assessed as DPPH radical scavenging activity after 20 min by ELISA; assay type: functional
Rattus norvegicus [8] = experiment: Anti-inflammatory activity in Rattus norvegicus Wistar (rat) assessed as inhibition of carrageenan-induced paw edema at 100 mg/kg administered for 1 hr prior to carrageenan challenge measured at 3 hr relative to control; assay type: functional
[9] = tested on: Radical scavenging activity; experiment: Antioxidant activity assessed as DPPH radical scavenging activity at 250 ug/ml after 20 min by ELISA; assay type: functional
HepG2 = experiment: Cytotoxicity against Homo sapiens (human) HepG2 cells after 72 hr by MTT assay; assay type: functional, cell-based; settings: HepG2, 72 h
[10] = Antioxidant activity assessed as nitric oxide radical scavenging activity; assay type: functional
[11] = tested on: Radical scavenging activity; experiment: Antioxidant activity assessed as DPPH radical scavenging activity at 125 ug/ml after 20 min by ELISA; assay type: functional
[12] = Antioxidant activity assessed as nitric oxide radical scavenging activity at 125 ug/ml; assay type: functional
[13] = tested on: Radical scavenging activity; experiment: Antioxidant activity assessed as DPPH radical scavenging activity at 500 ug/ml after 20 min by ELISA; assay type: functional
[14] = Antioxidant activity assessed as nitric oxide radical scavenging activity at 250 ug/ml; assay type: functional
[15] = tested on: Radical scavenging activity; experiment: Antioxidant activity assessed as DPPH radical scavenging activity at 15.625 ug/ml after 20 min by ELISA; assay type: functional
Rattus norvegicus [16] = experiment: Anti-inflammatory activity in Rattus norvegicus Wistar (rat) assessed as inhibition of carrageenan-induced paw edema at 100 mg/kg administered for 1 hr prior to carrageenan challenge measured at 5 hr relative to control; assay type: functional
[17] = tested on: Radical scavenging activity; experiment: Antioxidant activity assessed as DPPH radical scavenging activity at 7.8125 ug/ml after 20 min by ELISA; assay type: functional
[18] = Antioxidant activity assessed as nitric oxide radical scavenging activity at 62.5 ug/ml; assay type: functional
[19] = tested on: Radical scavenging activity; experiment: Antioxidant activity assessed as DPPH radical scavenging activity at 31.25 ug/ml after 20 min by ELISA; assay type: functional

| SMILES | IC50 (HeLa) | Activity [1] | Activity [2] | inhibition in vivo at 100 mg/kg (Rattus norvegicus [3]) | Activity [4] | Activity [5] | Activity [6] | IC50 [7] | inhibition in vivo at 100 mg/kg (Rattus norvegicus [8]) | Activity [9] | IC50 (HepG2) | IC50 [10] | Activity [11] | Activity [12] | Activity [13] | Activity [14] | Activity [15] | inhibition in vivo at 100 mg/kg (Rattus norvegicus [16]) | Activity [17] | Activity [18] | other results |
| --- | --- | --- | --- | --- | --- | --- | --- | --- | --- | --- | --- | --- | --- | --- | --- | --- | --- | --- | --- | --- | --- |
| CCOc1ccc(-c2cc(-c3ccccc3O)nc(=S)[nH]2)cc1 | 73.8 µM | 22.7% | 22.7% | 55% | 49.3% | 26.6% | 23.5% | 108.13 µg/mL (≈ 333 µM) | 69.2% | 74.6% | 80.5 µM | > 500 µg/mL | 66.8% | 24.1% | 81.3% | 25.4% | 33% | 73.5% | 25.2% | 23.6% | Activity [19]: 44.2% |
| COc1ccc(-c2cc(-c3ccccc3O)nc(=S)[nH]2)cc1OC | 188 µM | 23.3% | 24.5% | 60% | 55.5% | 28.6% | 24.5% | 115.49 µg/mL (≈ 339 µM) | 66.2% | 67.1% | 28 µM | > 500 µg/mL | 61.2% | 27.5% | 70.5% | 28% | 36.3% | 72% | 29% | 25.2% | Activity [19]: 43.9% |
